Results as given in patent publication US8802597B2, “Herbicidal pyrimidines” (E I du Pont de Nemours and Company, priority 2003, dated 2014).

How the values were obtained:
Experiment in all cases: Test D pre/postemergence
Type in all cases: in vivo
Details in all cases: scale 0 to 100 (100 = complete control)
[1] = tested on: Russian thistle (Salsola kali)
Excerpt: (§1) Seeds of plant species selected from catchweed bedstraw (galium; Galium aparine), common chickweed (Stellaria media), kochia (Kochia scoparia), lambsquarters (Chenopodium album), pigweed (Amaranthus retroflexus), Russian thistle (Salsola kali), wild buckwheat (Polygonum convolvulus), wild mustard (Sinapis arvensis), winter barley (Hordeum vulgare), and wheat (Triticum aestivum) were planted and treated preemergence with test chemicals formulated in a non-phytotoxic solvent mixture which included a surfactant.
(§2) At the same time, plants selected from these crop and weed species were treated with postemergence applications of some of the test chemicals formulated in the same manner. Plants ranged in height from 2 to 18 cm (1- to 4-leaf stage) for postemergence treatments. Treated plants and controls were maintained in a controlled growth environment for 15 to 25 days after which time all species were compared to controls and visually evaluated. Plant response ratings, summarized in Table D, are based on a scale of 0 to 100 where 0 is no effect and 100 is complete control. A dash (-) response means no test result.

[2] = tested on: pigweed (Amaranthus retroflexus)
Excerpt: as §1, §2

[3] = tested on: wild mustard (Sinapis arvensis)
Excerpt: as §1, §2

kochia (Kochia scoparia) = tested on: kochia (Kochia scoparia)
Excerpt: as §1, §2

[4] = tested on: catchweed bedstraw (galium; Galium aparine)
Excerpt: as §1, §2

[5] = tested on: common chickweed (Stellaria media)
Excerpt: as §1, §2

[6] = tested on: lambsquarters (Chenopodium album)
Excerpt: as §1, §2

[7] = tested on: wheat (Triticum aestivum)
Excerpt: as §1, §2

[8] = tested on: wild buckwheat (Polygonum convolvulus)
Excerpt: as §1, §2

## COC(=O)c1nc(C2CC2C)nc(N)c1Br (stereo not shown) [Compound 28]
[1]; Postemergence, 62 g ai/ha
  Plant response rating, Russian Thistle: 65
[1]; Postemergence, 125 g ai/ha
  Plant response rating, Russian Thistle: 70
[1]; Postemergence, 250 g ai/ha
  Plant response rating, Russian Thistle: 70
[1]; Preemergence, 62 g ai/ha
  Plant response rating, Russian Thistle: 45
[1]; Preemergence, 125 g ai/ha
  Plant response rating, Russian Thistle: 80
[1]; Preemergence, 250 g ai/ha
  Plant response rating, Russian Thistle: 100
[2]; Postemergence, 62 g ai/ha
  Plant response rating, Pigweed: 60
[2]; Postemergence, 125 g ai/ha
  Plant response rating, Pigweed: 60
[2]; Postemergence, 250 g ai/ha
  Plant response rating, Pigweed: 70
[2]; Preemergence, 62 g ai/ha
  Plant response rating, Pigweed: 45
[2]; Preemergence, 250 g ai/ha
  Plant response rating, Pigweed: 80
[3]; Postemergence, 62 g ai/ha
  Plant response rating, Mustard, Wild: 45
[3]; Postemergence, 125 g ai/ha
  Plant response rating, Mustard, Wild: 60
[3]; Postemergence, 250 g ai/ha
  Plant response rating, Mustard, Wild: 60
[3]; Preemergence, 62 g ai/ha
  Plant response rating, Mustard, Wild: 60
[3]; Preemergence, 125 g ai/ha
  Plant response rating, Mustard, Wild: 60
[3]; Preemergence, 250 g ai/ha
  Plant response rating, Mustard, Wild: 60
Kochia (Kochia scoparia); Postemergence, 62 g ai/ha
  Plant response rating, Kochia: 70
Kochia (Kochia scoparia); Postemergence, 125 g ai/ha
  Plant response rating, Kochia: 75
Kochia (Kochia scoparia); Postemergence, 250 g ai/ha
  Plant response rating, Kochia: 75
Kochia (Kochia scoparia); Preemergence, 62 g ai/ha
  Plant response rating, Kochia: 45
Kochia (Kochia scoparia); Preemergence, 125 g ai/ha
  Plant response rating, Kochia: 80
Kochia (Kochia scoparia); Preemergence, 250 g ai/ha
  Plant response rating, Kochia: 100
[4]; Postemergence, 62 g ai/ha
  Plant response rating, Galium: 100
[4]; Postemergence, 250 g ai/ha
  Plant response rating, Galium: 100
[4]; Preemergence, 62 g ai/ha
  Plant response rating, Galium: 100
[4]; Preemergence, 125 g ai/ha
  Plant response rating, Galium: 100
[4]; Preemergence, 250 g ai/ha
  Plant response rating, Galium: 100
[5]; Postemergence, 62 g ai/ha
  Plant response rating, Chickweed: 65
[5]; Postemergence, 125 g ai/ha
  Plant response rating, Chickweed: 65
[5]; Postemergence, 250 g ai/ha
  Plant response rating, Chickweed: 65
[5]; Preemergence, 62 g ai/ha
  Plant response rating, Chickweed: 60
[5]; Preemergence, 125 g ai/ha
  Plant response rating, Chickweed: 60
[5]; Preemergence, 250 g ai/ha
  Plant response rating, Chickweed: 60
[6]; Postemergence, 62 g ai/ha
  Plant response rating, Lambsquarters: 65
[6]; Postemergence, 125 g ai/ha
  Plant response rating, Lambsquarters: 70
[6]; Postemergence, 250 g ai/ha
  Plant response rating, Lambsquarters: 75
[6]; Preemergence, 62 g ai/ha
  Plant response rating, Lambsquarters: 60
[6]; Preemergence, 125 g ai/ha
  Plant response rating, Lambsquarters: 60
[6]; Preemergence, 250 g ai/ha
  Plant response rating, Lambsquarters: 60
[7]; Postemergence, 62 g ai/ha
  Plant response rating, Wheat: 20
[7]; Postemergence, 125 g ai/ha
  Plant response rating, Wheat: 35
[7]; Postemergence, 250 g ai/ha
  Plant response rating, Wheat: 35
[7]; Preemergence, 62 g ai/ha
  Plant response rating, Wheat: 20
[7]; Preemergence, 125 g ai/ha
  Plant response rating, Wheat: 35
[7]; Preemergence, 250 g ai/ha
  Plant response rating, Wheat: 35
[8]; Postemergence, 62 g ai/ha
  Plant response rating, Buckwheat, Wild: 35
[8]; Postemergence, 125 g ai/ha
  Plant response rating, Buckwheat, Wild: 55
[8]; Postemergence, 250 g ai/ha
  Plant response rating, Buckwheat, Wild: 60
[8]; Preemergence, 62 g ai/ha
  Plant response rating, Buckwheat, Wild: 45
[8]; Preemergence, 125 g ai/ha
  Plant response rating, Buckwheat, Wild: 45
[8]; Preemergence, 250 g ai/ha
  Plant response rating, Buckwheat, Wild: 60

## COC(=O)c1nc(C2CC2)nc(NO)c1Br [Compound 35]
[1]; Postemergence, 62 g ai/ha
  Plant response rating, Russian Thistle: 100
[1]; Postemergence, 125 g ai/ha
  Plant response rating, Russian Thistle: 100
[1]; Postemergence, 250 g ai/ha
  Plant response rating, Russian Thistle: 100
[1]; Preemergence, 62 g ai/ha
  Plant response rating, Russian Thistle: 85
[1]; Preemergence, 125 g ai/ha
  Plant response rating, Russian Thistle: 100
[1]; Preemergence, 250 g ai/ha
  Plant response rating, Russian Thistle: 100
[2]; Postemergence, 62 g ai/ha
  Plant response rating, Pigweed: 100
[2]; Postemergence, 125 g ai/ha
  Plant response rating, Pigweed: 100
[2]; Postemergence, 250 g ai/ha
  Plant response rating, Pigweed: 100
[2]; Preemergence, 62 g ai/ha
  Plant response rating, Pigweed: 65
[2]; Preemergence, 125 g ai/ha
  Plant response rating, Pigweed: 80
[2]; Preemergence, 250 g ai/ha
  Plant response rating, Pigweed: 85
[3]; Postemergence, 62 g ai/ha
  Plant response rating, Mustard, Wild: 75
[3]; Postemergence, 125 g ai/ha
  Plant response rating, Mustard, Wild: 75
[3]; Postemergence, 250 g ai/ha
  Plant response rating, Mustard, Wild: 75
[3]; Preemergence, 62 g ai/ha
  Plant response rating, Mustard, Wild: 65
[3]; Preemergence, 125 g ai/ha
  Plant response rating, Mustard, Wild: 70
[3]; Preemergence, 250 g ai/ha
  Plant response rating, Mustard, Wild: 75
Kochia (Kochia scoparia); Postemergence, 62 g ai/ha
  Plant response rating, Kochia: 80
Kochia (Kochia scoparia); Postemergence, 125 g ai/ha
  Plant response rating, Kochia: 85
Kochia (Kochia scoparia); Postemergence, 250 g ai/ha
  Plant response rating, Kochia: 85
Kochia (Kochia scoparia); Preemergence, 62 g ai/ha
  Plant response rating, Kochia: 75
Kochia (Kochia scoparia); Preemergence, 125 g ai/ha
  Plant response rating, Kochia: 100
Kochia (Kochia scoparia); Preemergence, 250 g ai/ha
  Plant response rating, Kochia: 100
[4]; Postemergence, 62 g ai/ha
  Plant response rating, Galium: 100
[4]; Postemergence, 125 g ai/ha
  Plant response rating, Galium: 100
[4]; Postemergence, 250 g ai/ha
  Plant response rating, Galium: 100
[4]; Preemergence, 62 g ai/ha
  Plant response rating, Galium: 85
[4]; Preemergence, 125 g ai/ha
  Plant response rating, Galium: 100
[4]; Preemergence, 250 g ai/ha
  Plant response rating, Galium: 100
[5]; Postemergence, 62 g ai/ha
  Plant response rating, Chickweed: 80
[5]; Postemergence, 125 g ai/ha
  Plant response rating, Chickweed: 80
[5]; Postemergence, 250 g ai/ha
  Plant response rating, Chickweed: 85
[5]; Preemergence, 62 g ai/ha
  Plant response rating, Chickweed: 60
[5]; Preemergence, 125 g ai/ha
  Plant response rating, Chickweed: 100
[5]; Preemergence, 250 g ai/ha
  Plant response rating, Chickweed: 100
[6]; Postemergence, 62 g ai/ha
  Plant response rating, Lambsquarters: 100
[6]; Postemergence, 125 g ai/ha
  Plant response rating, Lambsquarters: 100
[6]; Postemergence, 250 g ai/ha
  Plant response rating, Lambsquarters: 100
[6]; Preemergence, 62 g ai/ha
  Plant response rating, Lambsquarters: 65
[6]; Preemergence, 125 g ai/ha
  Plant response rating, Lambsquarters: 75
[6]; Preemergence, 250 g ai/ha
  Plant response rating, Lambsquarters: 80
[7]; Postemergence, 62 g ai/ha
  Plant response rating, Wheat: 0
[7]; Postemergence, 125 g ai/ha
  Plant response rating, Wheat: 65
[7]; Postemergence, 250 g ai/ha
  Plant response rating, Wheat: 70
[7]; Preemergence, 62 g ai/ha
  Plant response rating, Wheat: 35
[7]; Preemergence, 125 g ai/ha
  Plant response rating, Wheat: 40
[7]; Preemergence, 250 g ai/ha
  Plant response rating, Wheat: 50
[8]; Postemergence, 62 g ai/ha
  Plant response rating, Buckwheat, Wild: 60
[8]; Postemergence, 125 g ai/ha
  Plant response rating, Buckwheat, Wild: 70
[8]; Postemergence, 250 g ai/ha
  Plant response rating, Buckwheat, Wild: 80
[8]; Preemergence, 62 g ai/ha
  Plant response rating, Buckwheat, Wild: 55
[8]; Preemergence, 125 g ai/ha
  Plant response rating, Buckwheat, Wild: 60
[8]; Preemergence, 250 g ai/ha
  Plant response rating, Buckwheat, Wild: 65
